The text below walks through data of ChEMBL document CHEMBL3217567, “Differential activation of soluble guanylate cyclase by a series of aryl disulfanyl dinitrate esters” (Medchemcomm, 2014).

Broadly, the EC50 is the concentration that produces a half-maximal response. Usually Emax stands for the maximal effect, on the per cent scale that the assay sets.

The nature of experiment [1]: (§1) Activation of Sprague-Dawley rat soluble guanylate cyclase after 10 mins in presence of cysteine.
The species named for experiment [2] is Rattus norvegicus. Briefly: Activation of Sprague-Dawley rat soluble guanylate cyclase after 10 mins in presence of cysteine relative to GTN.
Experiment [3] is filed under the species Rattus norvegicus. The description is as §1.
Experiment [4] in a line: Activation of Sprague-Dawley rat soluble guanylate cyclase after 10 mins.
The species entered for experiment [5] is Rattus norvegicus. Briefly: Activation of Sprague-Dawley rat soluble guanylate cyclase after 10 mins relative to GTN.
Experiment [6] concerns the target Soluble guanylate cyclase (Homo sapiens) (UniProt Q02153+O75343+P33402+Q02108). Briefly: Activation of soluble guanylate cyclase (unknown origin) assessed as apparent initial rate of oxidation of oxyhemoglobin in presence of cysteine relative to GTN. Type of experiment: protein-complex assay.

For the compound `O=[N+]([O-])OCC(CO[N+](=O)[O-])O[N+](=O)[O-]` [NITROGLYCERIN], in experiment [1], the EC50 came to 200 µM.

Turning to `O=[N+]([O-])OCC(CSSc1ccc(Cl)cc1)O[N+](=O)[O-]` (stereo not drawn), in the experiment filed under Rattus norvegicus [2], the Emax was 195%. Besides, in the experiment listed under Rattus norvegicus [3], the Activity entry was “Dose-dependent effect”.

Take `O=[N+]([O-])OCC(CSSc1ccccc1)O[N+](=O)[O-]` (stereo not drawn): the Emax in the experiment listed under Rattus norvegicus [2] came out at 201%. Also, the Activity result in the experiment listed under Rattus norvegicus [3] is “Dose-dependent effect”.

As to `O=[N+]([O-])OCC(CSSc1ccc(F)cc1)O[N+](=O)[O-]` (stereo not drawn), the maximal effect (Emax) in the experiment filed under Rattus norvegicus [2] was determined as 192%. Besides, in the experiment filed under Rattus norvegicus [3], the Activity entry was “Dose-dependent effect”.

Consider `Cc1ccc(SSCC(CO[N+](=O)[O-])O[N+](=O)[O-])cc1` (stereo not drawn), for which the concentration for a half-maximal effect (EC50) in experiment [4] amounted to 170 µM. The Efficacy in the experiment listed under Rattus norvegicus [5] was 114%. Also, in the experiment listed under Rattus norvegicus [2], the maximal effect (Emax) turned out to be 279%. Besides, the Activity entry in the experiment listed under Rattus norvegicus [3] is “Dose-dependent effect”.

For the compound `COc1ccc(SSCC(CO[N+](=O)[O-])O[N+](=O)[O-])cc1` (stereo not drawn), the Ratio in experiment [6] was 2. For the same compound, the maximal effect (Emax) in the experiment filed under Rattus norvegicus [2] was determined as 245%. Further, the Activity result in the experiment listed under Rattus norvegicus [3] was “Dose-dependent effect”.

In turn, `O=[N+]([O-])OCC(CSSc1ccc(Br)cc1)O[N+](=O)[O-]` (stereo not drawn) had an EC50 in experiment [4] of 40 µM. For the same compound, the Efficacy in the experiment filed under Rattus norvegicus [5] turned out to be 60%. In addition, the maximal effect (Emax) in the experiment filed under Rattus norvegicus [2] was 218%. Moreover, the Activity entry in the experiment filed under Rattus norvegicus [3] is “Dose-dependent effect”.
